One compound from patent US11267812B2 (Mirati Therapeutics, Inc., priority 2016, dated 2022) can be followed below.

In assay [1] the test system is Phospho-ERK in NCI-H358 cells expressing KRas G12C. The assay can be described thus: Cellular inhibition of KRas G12C by Phospho-ERK measurement in NCI-H358 cells. The format is cell-based. As to conditions: Homo sapiens; NCI-H358 cells, 3 hours compound treatment; read-out: IC50 (pERK(Thr202/Tyr204) normalized with GAPDH). A digest of the protocol: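 After 8–12 h attachment, NCI-H358 cells were treated with compounds for 3 h (0.5% DMSO final), fixed, methanol-permeabilized and immunostained. pERK(Thr202/Tyr204) was read by infrared imaging and normalized to GAPDH as percent of DMSO control. IC50 came from a 4-parameter fit.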

The target of another assay is KRas G12C (Homo sapiens, UniProt P01116, C118S/C51S/C80L/G12C). The assay can be described thus: KRas G12C Modification Assay (LCMS detection of covalent adduct). It counts as binding. The note with it: 5 μM compound, 3 hours. The procedure:
A 10 μL aliquot of each protein solution was then transferred to a 384 well microtiter plate. Initial compound stocks were generated at fifty times their desired final assay concentration in DMSO.
Exemplary compounds of Formula (I) were diluted 25-fold into K-Ras Assay Buffer to a final of two times their final concentration. A 10 μL aliquot of each diluted compound solution was then added to each of the protein solutions in the microtiter plate to initiate reaction. […] At each time point, the reactions were quenched with 20 μL of a 25 mM acetic acid solution. […] Once all reactions were quenched, the plates were heat sealed and the samples were injected into a LC/MS system for data acquisition.
Samples were injected in their liquid phase onto a C-3 reverse phase column to remove assay buffer and prepare the samples for mass spectrometer. The proteins were eluted from the column using an acetonitrile gradient and fed directly into the mass analyzer. Initial raw data analysis took place in Agilent MassHunter software immediately post data acquisition.
Raw data analysis of the intact protein was exclusively a deconvolution of the multiple charge states of each protein in solution using a maximum entropy deconvolution provided in Mass Hunter. To minimize complexity, only the data over limited mass ranges were considered for analysis, with a minimum of one Dalton mass step intervals. The heights of all masses identified during raw data analysis were exported to be further analyzed in Spotfire® data analysis software.
Final data analysis was a multistep process in the Spotfire® data analysis software package. Briefly, each protein mass was calculated as a percent of the total signal of that sample, that percentage was then normalized to the percentage of signal of the protein in the absence of reactive compounds. Those normalized signals were reported as normalized percent of control (POC). […] Key: “A”≤25% POC; “B”>25% POC≤50% POC; “C”>50% POC and ND=not determined.

Regarding `C=CC(=O)N1CCN(c2nc(OC[C@@H]3CCCN3C)nc3c2CCN(c2c(C)ccc4[nH]ncc24)C3)CC1CC#N` (stereo partly drawn) [Example 148, 2-[4-[7-(5-methyl-1H-indazol-4-yl)-2-[[(2S)-1-methylpyrrolidin-2-yl]methoxy]-6,8-dihydro-5H-pyrido[3,4-d]pyrimidin-4-yl]-1-prop-2-enoyl-piperazin-2-yl]acetonitrile], the IC50 in assay [1] lay within 1 to 1000 nM. Further, the “POC (normalized percent of control, KRas G12C modification)” value at KRas G12C is given as “C (“C”>50% POC)”.
